Entries after “also recorded” stand apart in the source; their conditions may differ.
Assays:
SHIP1 = target: T1, SHIP1 (Homo sapiens, UniProt Q92835); assay: Fluorescence Polarization (FP) assay for SHIP1 enzymatic activity; assay type: biochemical; settings: in vitro, hydrochloride
T1 sequence (Q92835 1-1189): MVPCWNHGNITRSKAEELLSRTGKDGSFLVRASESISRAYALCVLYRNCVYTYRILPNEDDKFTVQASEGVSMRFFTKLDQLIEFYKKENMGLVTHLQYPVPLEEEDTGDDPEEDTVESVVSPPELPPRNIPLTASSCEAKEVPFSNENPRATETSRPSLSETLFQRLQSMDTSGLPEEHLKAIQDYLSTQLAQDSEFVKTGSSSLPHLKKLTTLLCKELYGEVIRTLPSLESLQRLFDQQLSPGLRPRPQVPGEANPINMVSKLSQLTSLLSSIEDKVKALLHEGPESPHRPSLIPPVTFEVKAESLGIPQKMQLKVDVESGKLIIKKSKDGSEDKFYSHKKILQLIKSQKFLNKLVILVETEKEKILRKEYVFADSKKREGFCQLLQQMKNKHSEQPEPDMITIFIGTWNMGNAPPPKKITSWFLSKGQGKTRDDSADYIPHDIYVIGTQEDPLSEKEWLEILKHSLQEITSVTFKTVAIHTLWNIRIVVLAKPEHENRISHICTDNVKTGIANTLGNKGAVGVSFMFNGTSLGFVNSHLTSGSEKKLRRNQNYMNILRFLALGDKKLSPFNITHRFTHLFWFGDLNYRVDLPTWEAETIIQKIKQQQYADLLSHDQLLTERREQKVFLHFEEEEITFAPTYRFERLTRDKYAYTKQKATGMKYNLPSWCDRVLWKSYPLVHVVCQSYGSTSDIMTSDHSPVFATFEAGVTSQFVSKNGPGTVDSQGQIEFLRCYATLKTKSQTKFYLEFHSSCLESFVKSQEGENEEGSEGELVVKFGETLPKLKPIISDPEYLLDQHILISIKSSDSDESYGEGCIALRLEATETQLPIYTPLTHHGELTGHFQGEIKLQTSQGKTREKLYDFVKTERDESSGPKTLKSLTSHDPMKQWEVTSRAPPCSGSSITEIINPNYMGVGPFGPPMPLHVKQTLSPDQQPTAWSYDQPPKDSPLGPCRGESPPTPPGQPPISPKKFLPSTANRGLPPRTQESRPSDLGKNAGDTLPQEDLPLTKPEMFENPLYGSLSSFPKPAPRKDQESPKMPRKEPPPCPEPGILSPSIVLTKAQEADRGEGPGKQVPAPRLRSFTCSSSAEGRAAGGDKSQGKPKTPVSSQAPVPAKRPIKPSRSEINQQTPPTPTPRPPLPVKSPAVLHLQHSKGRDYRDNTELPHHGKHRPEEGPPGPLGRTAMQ
Source text: FIGS. 6A-6F: Characterizations of the soluble SHIPi compound K118. FIG. 6A: Fluorescence Polarization (FP) assay comparing SHIPi enzymatic inhibitory activity between 3AC and K118 (IC50˜13.87). In the remaining panels we show for K118 and H2O treated mice (as indicated). FIG. 6B: Representative box and whisker graph depicting serum levels of G-CSF (n=4/group); FIG. 6C: Flow cytometric analysis comparing LT-HSC (LSKFlk2−CD34−), ST-HSC (LSKFlk2−CD34+), and MPP (LSKFlk2^+CD34^+); FIG. 6D: Absolute increase in BM LT-HSC, ST-HSC, and MPP (n=5/group). Primary CRU assay illustrating global and lineage reconstitution one month post transplant; Absolute increase in repopulating units (RU). FIG. 6E: Representative contour plots for PDGFRα^+CD51^+ MSC (after excluding CD45^+, CD31^+, Lin^+ cells); FIG. 6F: Box and whiskers graph illustrating the percentage of PDGFRa^+CD51^+ MSC (n=5/group); Representative images of CFU-F assays used to measure CFU-F frequencies in BM cells of treated mice and Box and whiskers graphs indicating CFU-F frequency in treated mice. All of the above comparisons are representative of two independent experiments.
(FIG. 6A) We sought to determine if this water-soluble K118 SHIPi compound has the capacity to increase G-CSF production within the same five-day injection period as 3AC. […]

immunoregulatory cells = assay: Preliminary oral K118 study: immunoregulatory cells; assay type: in vivo, wt C57BL/6 mice; settings: K118 orally 10 mg/kg in water
Experimental: K118 was administered in water, and in wt C57BL/6 mice.

C[C@@]12CCC[C@H]1[C@@H]1CC[C@H]3C[C@@H](N)CC[C@]3(C)[C@H]1CC2.Cl [K118, 3β-amino-5α-androstane hydrochloride]
SHIP1 inhibitory activity compared with 3AC (SHIP1): comparable SHIP1 inhibitory activity; also recorded: equal potency
neutrophil numbers (immunoregulatory cells): trend for increased
frequency of natural T regulatory cells (nTreg, CD4+CD25+FoxP3+) (immunoregulatory cells; mesenteric lymph node (mLN)): Significant increases
frequency of myeloid derived suppressor cells (MDSC, Gr1+Mac1+) (immunoregulatory cells; spleen): significant increase
frequency of natural T regulatory cells (nTreg, CD4+CD25+FoxP3+) (immunoregulatory cells; spleen): Significant increases

Reference: patent US20200129523A1, “SHIP INHIBITION TO INDUCE EXPRESSION OF GRANULOCYTE COLONY STIMULATING FACTOR IN A SUBJECT” (THE RESEARCH FOUNDATION FOR THE STATE UNIVERSITY OF NEW YORK, priority 2014, published 2020)
